According to PubChem BioAssay AID248 (DTP/NCI, 2004):
“And” between values parts separate entries of the source, which are not always exact repeats. Equal entries are not always repeated. Toxic doses and inconclusive results are not listed. No stated cut-off is given here; in the data, active means T/C of 150% or more; inactive means T/C below 125%.

System: L1210 leukemia ip in BDF1 mice, survival T/C
Assay: NCI In Vivo Anticancer Drug Screen. Data for tumor model L1210 Leukemia (intraperitoneal) in B6D2F1 (BDF1) mice
Settings: endpoint: mean survival time, higher = longer survival
Procedure, shortened: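 Mice bearing the transplanted tumor received compound or vehicle. Survival of the treated group was divided by that of the vehicle-treated control group to give the ratio.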

[1] = dose: 50.0 mg/kg/injection, schedule: Q01DX009 (ip), vehicle: saline
[2] = dose: 100.0 mg/kg/injection, schedule: Q04DX003 (ip), vehicle: Klucel (hydroxypropylcellulose) (HPC)
[3] = dose: 200.0 mg/kg/injection, schedule: Q04DX003 (ip), vehicle: Klucel (hydroxypropylcellulose) (HPC)
[4] = dose: 100.0 mg/kg/injection, schedule: Q01DX001 (ip), vehicle: saline
[5] = dose: 200.0 mg/kg/injection, schedule: Q01DX001 (ip), vehicle: saline
[6] = dose: 100.0 mg/kg/injection, schedule: Q04DX002 (ip), vehicle: Klucel (hydroxypropylcellulose) (HPC)
[7] = dose: 200.0 mg/kg/injection, schedule: Q04DX002 (ip), vehicle: Klucel (hydroxypropylcellulose) (HPC)

Measured: T/C

Cc1c2c(ccc3ccccc32)c[n+]2ccccc12
inactive: dose: 1.1 mg/kg/injection, schedule: Q01DX009 (ip), vehicle: saline 97 % of control | dose: 1.1 mg/kg/injection, schedule: Q03HX024 (ip), vehicle: saline 98 % of control | dose: 1.7 mg/kg/injection, schedule: Q01DX009 (ip), vehicle: saline 105 % of control | dose: 1.7 mg/kg/injection, schedule: Q03HX024 (ip), vehicle: saline 100 % of control | dose: 1.8 mg/kg/injection, schedule: Q01DX Z (ip), vehicle: methylcellulose (MC) 116 % of control | dose: 2.0 mg/kg/injection, schedule: Q01DX009 (ip), vehicle: saline 96 % of control | dose: 2.5 mg/kg/injection, schedule: Q01DX Z (ip), vehicle: carboxymethylcellulose (CMC) 105 % of control | dose: 2.6 mg/kg/injection, schedule: Q01DX009 (ip), vehicle: saline 102 % of control | dose: 2.6 mg/kg/injection, schedule: Q03HX024 (ip), vehicle: saline 108 % of control | dose: 2.7 mg/kg/injection, schedule: Q01DX Z (ip), vehicle: methylcellulose (MC) 105 % of control | dose: 3.0 mg/kg/injection, schedule: Q01DX009 (ip), vehicle: saline 108 % of control | dose: 4.0 mg/kg/injection, schedule: Q01DX009 (ip), vehicle: saline 103 % of control | dose: 4.0 mg/kg/injection, schedule: Q01DX Z (ip), vehicle: methylcellulose (MC) 107 % of control | dose: 4.0 mg/kg/injection, schedule: Q03HX024 (ip), vehicle: saline 98 % of control | dose: 4.4 mg/kg/injection, schedule: Q01DX Z (ip), vehicle: methylcellulose (MC) 119 % of control | dose: 4.5 mg/kg/injection, schedule: Q01DX009 (ip), vehicle: saline 108 % of control | dose: 5.0 mg/kg/injection, schedule: Q01DX001 (ip), vehicle: carboxymethylcellulose (CMC) 100 % of control | dose: 5.0 mg/kg/injection, schedule: Q01DX Z (ip), vehicle: carboxymethylcellulose (CMC) 119 % of control | dose: 6.0 mg/kg/injection, schedule: Q01DX009 (ip), vehicle: saline 105 % of control and 107 % of control | dose: 6.0 mg/kg/injection, schedule: Q03HX024 (ip), vehicle: saline 104 % of control and 106 % of control | dose: 6.25 mg/kg/injection, schedule: Q04DX003 (ip), vehicle: saline 104 % of control | dose: 6.6 mg/kg/injection, schedule: Q01DX Z (ip), vehicle: methylcellulose (MC) 121 % of control | dose: 9.0 mg/kg/injection, schedule: Q01DX009 (ip), vehicle: saline 107 % of control | dose: 10.0 mg/kg/injection, schedule: Q01DX001 (ip), vehicle: carboxymethylcellulose (CMC) 107 % of control | dose: 11.0 mg/kg/injection, schedule: Q01DX001 (ip), vehicle: saline 109 % of control | dose: 11.0 mg/kg/injection, schedule: Q04DX003 (ip), vehicle: saline 107 % of control | dose: 12.5 mg/kg/injection, schedule: Q04DX003 (ip), vehicle: saline 108 % of control | dose: 13.0 mg/kg/injection, schedule: Q01DX009 (ip), vehicle: saline 111 % of control | dose: 15.0 mg/kg/injection, schedule: Q01DX Z (ip), vehicle: methylcellulose (MC) 97 % of control | dose: 17.0 mg/kg/injection, schedule: Q01DX001 (ip), vehicle: saline 110 % of control | dose: 17.0 mg/kg/injection, schedule: Q04DX003 (ip), vehicle: saline 105 % of control | dose: 20.0 mg/kg/injection, schedule: Q01DX001 (ip), vehicle: carboxymethylcellulose (CMC) 105 % of control | dose: 20.0 mg/kg/injection, schedule: Q01DX009 (ip), vehicle: saline 123 % of control | dose: 26.0 mg/kg/injection, schedule: Q01DX001 (ip), vehicle: saline 107 % of control | dose: 26.0 mg/kg/injection, schedule: Q04DX003 (ip), vehicle: saline 112 % of control

CN(C)CCc1ccc2cc3ccc(CCN(C)C)cc3nc2c1
inactive: dose: 6.25 mg/kg/injection, schedule: Q04DX002 (ip), vehicle: saline with Tween-80 102 % of control | dose: 12.5 mg/kg/injection, schedule: Q04DX002 (ip), vehicle: saline with Tween-80 105 % of control | dose: 25.0 mg/kg/injection, schedule: Q04DX002 (ip), vehicle: saline with Tween-80 105 % of control

CCCCN1CCNCC1
inactive: [1] 95 % of control | dose: 100.0 mg/kg/injection, schedule: Q01DX009 (ip), vehicle: saline 97 % of control | dose: 200.0 mg/kg/injection, schedule: Q01DX009 (ip), vehicle: saline 106 % of control

COc1ccccc1-n1c(O)c(N=Nc2ccccc2)c(=O)n(-c2ccc(C)cc2)c1=S
inactive: dose: 50.0 mg/kg/injection, schedule: Q04DX003 (ip), vehicle: Klucel (hydroxypropylcellulose) (HPC) 100 % of control | [2] 98 % of control | [3] 102 % of control

Cc1ccc(NP(N)(=O)Nc2ccc(C)cc2)cc1
inactive: dose: 50.0 mg/kg/injection, schedule: Q01DX001 (ip), vehicle: alcohol 102 % of control | dose: 100.0 mg/kg/injection, schedule: Q01DX001 (ip), vehicle: alcohol 102 % of control | dose: 200.0 mg/kg/injection, schedule: Q01DX001 (ip), vehicle: alcohol 108 % of control | dose: 400.0 mg/kg/injection, schedule: Q01DX001 (ip), vehicle: alcohol 96 % of control

CC(=O)C1=C(c2ccccc2)NC(=O)NC1c1ccco1 (stereo unspecified)
inactive: dose: 100.0 mg/kg/injection, schedule: Q04DX003 (ip), vehicle: saline with Tween-80 94 % of control | dose: 200.0 mg/kg/injection, schedule: Q04DX003 (ip), vehicle: saline with Tween-80 90 % of control | dose: 400.0 mg/kg/injection, schedule: Q04DX003 (ip), vehicle: saline with Tween-80 92 % of control

CC(=O)OC1C=CN(C(C)=O)C(SC23CC4CC(CC(C4)C2)C3)C1OC(C)=O (stereo unspecified)
inactive: [2] 92 % of control | [3] 100 % of control | dose: 400.0 mg/kg/injection, schedule: Q04DX003 (ip), vehicle: Klucel (hydroxypropylcellulose) (HPC) 92 % of control

O=C(N/N=C/c1c(Cl)cccc1Cl)C1CCCO1 (stereo unspecified)
inactive: dose: 6.25 mg/kg/injection, schedule: Q01DX009 (ip), vehicle: Klucel (hydroxypropylcellulose) (HPC) 96 % of control | dose: 12.5 mg/kg/injection, schedule: Q01DX009 (ip), vehicle: Klucel (hydroxypropylcellulose) (HPC) 96 % of control | dose: 25.0 mg/kg/injection, schedule: Q01DX009 (ip), vehicle: Klucel (hydroxypropylcellulose) (HPC) 95 % of control and 91 % of control

CN(C)CCCN1c2ccccc2CCc2ccccc21
inactive: dose: 3.12 mg/kg/injection, schedule: Q01DX009 (ip), vehicle: saline 96 % of control | dose: 6.25 mg/kg/injection, schedule: Q01DX009 (ip), vehicle: saline 101 % of control | dose: 12.5 mg/kg/injection, schedule: Q01DX009 (ip), vehicle: saline 93 % of control | dose: 25.0 mg/kg/injection, schedule: Q01DX009 (ip), vehicle: saline 104 % of control | dose: 25.0 mg/kg/injection, schedule: Q04DX003 (ip), vehicle: saline 100 % of control | [1] 101 % of control | dose: 50.0 mg/kg/injection, schedule: Q04DX003 (ip), vehicle: saline 93 % of control | [4] 94 % of control | [5] 90 % of control

NCCSSSSCCN
inactive: [4] 96 % of control | [5] 105 % of control

COC(=O)C(=O)CC(=O)c1ccc([N+](=O)[O-])cc1
inactive: [6] 95 % of control | [7] 95 % of control | dose: 400.0 mg/kg/injection, schedule: Q04DX002 (ip), vehicle: Klucel (hydroxypropylcellulose) (HPC) 103 % of control

O=C(O)c1cc(Br)cc(I)c1Cl
inactive: [6] 102 % of control | [7] 94 % of control

CC(C)(C)C1CCCCC1O (stereo unspecified)
inactive: [4] 92 % of control | [5] 97 % of control | dose: 400.0 mg/kg/injection, schedule: Q01DX001 (ip), vehicle: saline 92 % of control
